The test system of assay [1] is Puccinia triticina (PUCCRT). Briefly: Field assessment of Compound I and penthiopyrad on brown rust of wheat (AUDPC % control). Format: in vivo. Particulars: AUDPC-based, 2 field trials. From the text:
(§1) Treatments consisting of the compound of Formula I and fungicide compound penthiopyrad were applied either using individually or as a two-way mixture of penthiopyrad with the compound of Formula I. The compound of Formula I was applied with Agnique BP-420 (50% w/w at 0.3% v/v) at 75 and 150 g ai/ha and Penthiopyrad (Vertisan) was applied at 125 and 200 g ai/ha. Commercial standards used in the studies were Fluxapyroxad (Imtrex), applied at 100 g ai/ha, and Metconazole+Fluxapyroxad (Librax), applied at 161 g ai/ha.
Fungicidal treatments containing the compound of Formula I and penthiopyrad, either individually or as a two-way mixture, were assessed against brown rust of wheat (PUCCRT) in two separate field trials. In the first trial, fungicidal treatments were applied at B37-39 (protectant, approximately 0% infection at application) growth stages of wheat (TRZAW, MV Vanek variety) under natural infection of brown rust. The treatment was part of an experimental trial designed as a randomized complete block with four replications and a plot of approximately 2×3 m. Fungicidal treatments were applied at a water volume of 200 L/ha, using a backpack plot sprayer with a TEEJET QJ90-2XTT110 015 Nozzle.
In the second trial, fungicidal treatments containing the compound of Formula I and penthiopyrad, either individually or as a two-way mixture, were applied at B33 (curative, approximately 6.6% infection at application) growth stage of wheat (TRZAW, Miradoux variety) under natural infection of brown rust. The treatments were part of an experimental trial designed as a randomized complete block with four replications and a plot of approximately 2×3 m. Fungicidal treatments were applied at a water volume of 200 L/ha, using a backpack plot sprayer with a HARDI MD 110-02 Nozzle.
Disease severity (percentage of visual diseased foliage on whole plot or leaves) in both field trials was recorded following EPPO PP1/26 guideline prescriptions. Area under the disease progress curve (AUDPC) was calculated for each plot in both trials using the sets of recorded severity data. Relative AUDPC (% control based on AUDPC) was calculated as percent of the nontreated control. Final results for the control of brown rust of wheat by the compound of Formula I, penthiopyrad and mixtures are reported as an average of the relative AUDPC calculated over all […] field trials. Statistical analysis was done according to ANOVA and Tukey's test (p=0.10).

The test system of assay [2] is Zymoseptoria tritici (SEPTTR). Briefly: Field assessment of Compound I and penthiopyrad on leaf blotch of wheat (AUDPC % control). Format: in vivo. The following applies: AUDPC-based, 3 field trials.
From the text: as §1
Fungicidal treatments containing the compound of Formula I and penthiopyrad, either individually or as a two-way mixture, were assessed against leaf spot of wheat (SEPTTR) in three separate field trials. In the first trial, fungicidal treatments were applied at B33 (3% infection at application on L3) growth stage of winter wheat (TRZAW, Dinosor variety). The treatments were part of an experimental trial designed as a randomized complete block with four replications and a plot of approximately 1×6 m. Treatments were applied at water volume of 200 L/ha, using a backpack plot sprayer (BKPCKENG, FLATFANA nozzle) and pressurized at 200 kPa.
In the second trial, fungicidal treatments were applied twice at B32 (curative, 25% infection at application on L5) and B37-39 (5% infection at application on L3) growth stages of winter wheat (TRZAW, Consort variety). The treatments were part of an experimental trial designed as a randomized complete block with four replications and a plot of approximately 1×2 m. Treatments were applied at water volume of 200 L/ha, using a backpack plot sprayer (BKPCKAIR, Flat fan nozzle) and pressurized at 210 kPa.
In the final trial, fungicidal treatments were applied twice at B32 (protective, 15% infection at application on L6) and B37-39 (12% infection at application on L5) growth stages of winter wheat (TRZAW, Smaragd variety). The treatments were part of an experimental trial designed as a randomized complete block with four replications and a plot of approximately 2×3 m. Treatments were applied at water volume of 200 L/ha, using a backpack plot sprayer (BICYCAIR, FLATFANA nozzle) and pressurized at 220 kPa.
Disease severity (percentage of visual diseased foliage on whole plot or leaves) in […] field trials was recorded following EPPO PP1/26 guideline prescriptions. Area under the disease progress curve (AUDPC) was calculated for each plot in both trials using the sets of recorded severity data. Relative AUDPC (% control based on AUDPC) was calculated as percent of the nontreated control. Final results for the control of leaf spot of wheat by the compound of Formula I, penthiopyrad and mixtures are reported as an average of the relative AUDPC calculated over all three field trials. […]

As to `N#Cc1ccc(Oc2ccc(C(F)(F)C(O)(Cn3ncnc3S)c3ccc(F)cc3F)nc2)cc1` (stereo not shown) [Compound I, 4-((6-(2-(2,4-difluorophenyl)-1,1-difluoro-2-hydroxy-3-(5-mercapto-1H-1,2,4-triazol-1-yl)propyl)pyridin-3-yl)oxy)benzonitrile], the “PUCCRT % Control” value is on record as 93.5% in assay [1] (rate 75 g ai/ha) and 94.6% in assay [1] (rate 150 g ai/ha). The “SEPTTR % Control” value in assay [2] (rate 75 g ai/ha) came to 60.6%; in assay [2] (rate 150 g ai/ha), 71.1%.

The values above are taken from patent publication US20190297888A1, “FUNGICIDAL COMPOUNDS AND MIXTURES FOR FUNGAL CONTROL IN CEREALS” (Dow AgroSciences LLC, priority 2016, published 2019).
